According to ChEMBL document CHEMBL1629651, “A novel insertion mutation in Streptomyces coelicolor ribosomal S12 protein results in paromomycin resistance and antibiotic overproduction” (2009):
Converted amounts (≈) assume the structure as drawn. The source made the active and inactive calls. The rule behind the calls is not given here.

Key:
Streptomyces coelicolor [1] = experiment: Antimicrobial activity against Streptomyces coelicolor 1147 after 48 hrs; assay type: functional
Streptomyces coelicolor [2] = experiment: Antimicrobial activity against streptomycin-resistant Streptomyces coelicolor KO-178 harboring rpsL K88E mutant gene after 48 hrs; assay type: functional
Streptomyces coelicolor [3] = experiment: Antimicrobial activity against paromomycin-resistant Streptomyces coelicolor KO-347 harboring rpsl P91S mutant gene after 48 hrs; assay type: functional
Streptomyces coelicolor [4] = experiment: Antimicrobial activity against paromomycin-resistant Streptomyces coelicolor 92G harboring rpsL gene with inserted glycine at position 92 after 48 hrs; assay type: functional
Streptomyces coelicolor [5] = experiment: Antimicrobial activity against paromomycin-resistant Streptomyces coelicolor SP1 harboring rpsL A262G and C271T mutant gene after 48 hrs; assay type: functional
Streptomyces coelicolor [6] = experiment: Antimicrobial activity against paromomycin-resistant Streptomyces coelicolor SP2 harboring rpsL K88E mutant gene and inserted glycine at position 92 of the gene after 48 hrs; assay type: functional
[7] = target: T1, Small ribosomal subunit protein uS12 (Streptomyces coelicolor (strain ATCC BAA-471 / A3(2) / M145)) (UniProt P0A4A3); experiment: Binding affinity to Streptomyces coelicolor 1147 30S ribosomal protein S12 assessed as inhibition of protein synthesis at 0.2 ug/ml by fluorescence assay
T1 sequence (whole entry): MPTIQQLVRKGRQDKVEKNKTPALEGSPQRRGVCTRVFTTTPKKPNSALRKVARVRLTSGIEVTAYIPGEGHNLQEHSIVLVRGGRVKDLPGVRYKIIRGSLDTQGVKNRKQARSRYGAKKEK

Streptomyces coelicolor [8] = experiment: Binding affinity to Streptomyces coelicolor KO-178 30S ribosomal protein S12 K88E mutant assessed as inhibition of protein synthesis at 0.2 ug/ml by fluorescence assay
Streptomyces coelicolor [9] = experiment: Binding affinity to Streptomyces coelicolor KO-347 30S ribosomal ptotein S12 GI92 mutant assessed as inhibition of protein synthesis at 0.2 ug/ml by fluorescence assay
[10] = Streptomyces coelicolor, 1147, 48 h

Compound: NC[C@@H]1O[C@H](O[C@H]2[C@@H](O)[C@H](O[C@@H]3[C@@H](O)[C@H](N)C[C@H](N)[C@H]3O[C@H]3O[C@H](CN)[C@@H](O)[C@H](O)[C@H]3N)O[C@@H]2CO)[C@H](N)[C@@H](O)[C@@H]1O [FRAMYCETIN]
- MIC (Streptomyces coelicolor [1]; [10]): 0.3 µg/mL (≈ 0.488 µM)
- MIC (Streptomyces coelicolor [2]; KO-178, 48 h): 0.8 µg/mL (≈ 1.3 µM)
- MIC (Streptomyces coelicolor [3]; KO-347, 48 h): 0.5 µg/mL (≈ 0.813 µM)
- MIC (Streptomyces coelicolor [4]): 0.5 µg/mL (≈ 0.813 µM)
- MIC (Streptomyces coelicolor [5]; SP1, 48 h): 0.2 µg/mL (≈ 0.325 µM)
- MIC (Streptomyces coelicolor [6]; SP2, 48 h): 0.2 µg/mL (≈ 0.325 µM)

Compound: CC(=O)O[C@H]1C[C@@]2(C)[C@@H](C[C@@H](O)[C@H]3[C@@]4(C)CC[C@@H](O)[C@@H](C)[C@@H]4CC[C@@]32C)/C1=C(\CCC=C(C)C)C(=O)O [FUSIDIC ACID]
- MIC (Streptomyces coelicolor [1]; [10]): 50 µg/mL (≈ 96.8 µM)
- MIC (Streptomyces coelicolor [2]; KO-178, 48 h): 50 µg/mL (≈ 96.8 µM)
- MIC (Streptomyces coelicolor [3]; KO-347, 48 h): 50 µg/mL (≈ 96.8 µM)
- MIC (Streptomyces coelicolor [4]): 50 µg/mL (≈ 96.8 µM)
- MIC (Streptomyces coelicolor [5]; SP1, 48 h): 20 µg/mL (≈ 38.7 µM)
- MIC (Streptomyces coelicolor [6]; SP2, 48 h): 20 µg/mL (≈ 38.7 µM)

Compound: CN[C@@H]1[C@@H](O)[C@@H](O[C@@H]2[C@@H](O)[C@H](O[C@H]3O[C@H]([C@@H](C)O)[C@@H](O)[C@H](O)[C@H]3N)[C@@H](N)C[C@H]2N)OC[C@]1(C)O [GENETICIN]
- MIC (Streptomyces coelicolor [1]; [10]): 0.3 µg/mL (≈ 0.604 µM)
- MIC (Streptomyces coelicolor [2]; KO-178, 48 h): 0.3 µg/mL (≈ 0.604 µM)
- MIC (Streptomyces coelicolor [3]; KO-347, 48 h): 0.3 µg/mL (≈ 0.604 µM)
- MIC (Streptomyces coelicolor [4]): 1 µg/mL (≈ 2.01 µM)
- MIC (Streptomyces coelicolor [5]; SP1, 48 h): 0.5 µg/mL (≈ 1.01 µM)
- MIC (Streptomyces coelicolor [6]; SP2, 48 h): 0.5 µg/mL (≈ 1.01 µM)

Compound: NC[C@H]1O[C@H](O[C@H]2[C@H](O)[C@@H](O[C@H]3O[C@H](CO)[C@@H](O)[C@H](N)[C@H]3O)[C@H](N)C[C@@H]2N)[C@H](O)[C@@H](O)[C@@H]1O [KANAMYCIN]
- MIC (Streptomyces coelicolor [1]; [10]): 0.8 µg/mL (≈ 1.65 µM)
- MIC (Streptomyces coelicolor [2]; KO-178, 48 h): 0.8 µg/mL (≈ 1.65 µM)
- MIC (Streptomyces coelicolor [3]; KO-347, 48 h): 0.5 µg/mL (≈ 1.03 µM)
- MIC (Streptomyces coelicolor [4]): 1 µg/mL (≈ 2.06 µM)
- MIC (Streptomyces coelicolor [5]; SP1, 48 h): 0.5 µg/mL (≈ 1.03 µM)
- MIC (Streptomyces coelicolor [6]; SP2, 48 h): 0.5 µg/mL (≈ 1.03 µM)

Compound: CCC[C@@H]1C[C@@H](C(=O)N[C@@H]([C@H]2O[C@H](SC)[C@H](O)[C@@H](O)[C@H]2O)[C@@H](C)O)N(C)C1 [LINCOMYCIN]
- MIC (Streptomyces coelicolor [1]; [10]): 50 µg/mL (≈ 123 µM)
- MIC (Streptomyces coelicolor [2]; KO-178, 48 h): 40 µg/mL (≈ 98.4 µM)
- MIC (Streptomyces coelicolor [3]; KO-347, 48 h): 50 µg/mL (≈ 123 µM)
- MIC (Streptomyces coelicolor [4]): 20 µg/mL (≈ 49.2 µM)
- MIC (Streptomyces coelicolor [5]; SP1, 48 h): 40 µg/mL (≈ 98.4 µM)
- MIC (Streptomyces coelicolor [6]; SP2, 48 h): 10 µg/mL (≈ 24.6 µM)

Compound: NC[C@@H]1O[C@H](O[C@H]2[C@@H](O)[C@H](O[C@@H]3[C@@H](O)[C@H](N)C[C@H](N)[C@H]3O[C@H]3O[C@H](CO)[C@@H](O)[C@H](O)[C@H]3N)O[C@@H]2CO)[C@H](N)[C@@H](O)[C@@H]1O [PAROMOMYCIN]
- MIC (Streptomyces coelicolor [1]; [10]): 0.1 µg/mL (≈ 0.162 µM)
- MIC (Streptomyces coelicolor [2]; KO-178, 48 h): 0.3 µg/mL (≈ 0.487 µM)
- MIC (Streptomyces coelicolor [3]; KO-347, 48 h): 0.8 µg/mL (≈ 1.3 µM)
- MIC (Streptomyces coelicolor [4]): 2 µg/mL (≈ 3.25 µM)
- MIC (Streptomyces coelicolor [5]; SP1, 48 h): 2 µg/mL (≈ 3.25 µM)
- MIC (Streptomyces coelicolor [6]; SP2, 48 h): 3 µg/mL (≈ 4.87 µM)
- inhibition [7]: 80%
- inhibition (Streptomyces coelicolor [8]): > 80%
- inhibition (Streptomyces coelicolor [9]): inactive

Compound: CN[C@@H]1[C@H](O[C@H]2[C@H](O[C@H]3[C@H](O)[C@@H](O)[C@H](N=C(N)N)[C@@H](O)[C@@H]3N=C(N)N)O[C@@H](C)[C@]2(O)C=O)O[C@@H](CO)[C@H](O)[C@H]1O [STREPTOMYCIN]
- MIC (Streptomyces coelicolor [1]; [10]): 1 µg/mL (≈ 1.72 µM)
- MIC (Streptomyces coelicolor [2]; KO-178, 48 h): 100 µg/mL (≈ 172 µM)
- MIC (Streptomyces coelicolor [3]; KO-347, 48 h): 20 µg/mL (≈ 34.4 µM)
- MIC (Streptomyces coelicolor [4]): 20 µg/mL (≈ 34.4 µM)
- MIC (Streptomyces coelicolor [5]; SP1, 48 h): 200 µg/mL (≈ 344 µM)
- MIC (Streptomyces coelicolor [6]; SP2, 48 h): > 200 µg/mL

Compound: CN(C)[C@@H]1C(O)=C(C(N)=O)C(=O)[C@@]2(O)C(O)=C3C(=O)c4c(O)cccc4[C@@](C)(O)[C@H]3C[C@@H]12 [TETRACYCLINE]
- MIC (Streptomyces coelicolor [1]; [10]): 10 µg/mL (≈ 22.5 µM)
- MIC (Streptomyces coelicolor [2]; KO-178, 48 h): 10 µg/mL (≈ 22.5 µM)
- MIC (Streptomyces coelicolor [3]; KO-347, 48 h): 5 µg/mL (≈ 11.3 µM)
- MIC (Streptomyces coelicolor [4]): 10 µg/mL (≈ 22.5 µM)
- MIC (Streptomyces coelicolor [5]; SP1, 48 h): 3 µg/mL (≈ 6.75 µM)
- MIC (Streptomyces coelicolor [6]; SP2, 48 h): 3 µg/mL (≈ 6.75 µM)

Compound: GENTAMICIN
- MIC (Streptomyces coelicolor [1]): 0.1 µg/mL
- MIC (Streptomyces coelicolor [2]): 0.1 µg/mL
- MIC (Streptomyces coelicolor [3]): 0.5 µg/mL
- MIC (Streptomyces coelicolor [4]): 0.5 µg/mL
- MIC (Streptomyces coelicolor [5]): 0.5 µg/mL
- MIC (Streptomyces coelicolor [6]): 0.5 µg/mL
